The results in this text go back to PubChem BioAssay AID1996.

In general, solubility (kinetic) refers to the concentration staying in solution when a stock, usually in DMSO, is diluted into the medium.

≈ marks a conversion by molar mass, not a printed value. Where only a bound is given, the exact number is not on record here.

For this data set the following is noted: buffer; pH 7.4; 200.0 µM.
With `Cc1noc(C)c1COC(=O)c1csc2c1CCCC2`, the solubility (kinetic) turned out to be 8.3 µg/mL (≈ 28.5 µM).
The result for `CCCCCCCN1C2=NCCN2c2ccccc21.Cl` reads over 44.1 µg/mL; that for `Cc1csc(NC(=O)c2c(-c3ccccc3)noc2C)n1`, 37.4 µg/mL (≈ 125 µM); that for `CC1CCCC(NC(=O)CCNC(=O)c2ccc([N+](=O)[O-])cc2)C1C` (configuration not stated), over 52.1 µg/mL.
The result for `O=C(CSc1nc(O)c(Cc2ccccc2)c(=O)[nH]1)c1ccccc1` reads over 52.9 µg/mL; that for `O=C(OCc1ccc(F)cc1)c1cccnc1Cl`, 21.7 µg/mL (≈ 81.7 µM); that for `CCCCN(C(=S)SC)C1CCS(=O)(=O)C1` (configuration not stated), 36.9 µg/mL (≈ 131 µM).
The result for `CN(Cc1ccc(F)cc1)C(=O)CN1C(=O)c2ccccc2S1(=O)=O` reads 49 µg/mL (≈ 135 µM); that for `COc1ccc2[nH]c(C(=O)N3CCc4ccccc4C3)c(C)c2c1`, 2.6 µg/mL (≈ 8.12 µM).
As for `Cc1cc(C(=O)OCC(=O)NCCN2C(=O)CSC2=O)ccc1[N+](=O)[O-]`, the kinetic solubility is over 57.2 µg/mL.
In turn, `Cc1csc(NC(=O)CS(=O)(=O)c2ccccc2)n1` showed a kinetic solubility of 44.3 µg/mL (≈ 149 µM).
For the compound `Clc1ccccc1OCCCCN1CCCCC1`, the kinetic solubility is 39.9 µg/mL (≈ 149 µM).
The same measure for `COc1cccc(-c2nc3ccc(N4CCN(C)CC4)cc3[nH]2)c1`: 14.5 µg/mL (≈ 45 µM); for `COCC(C)n1c(C)cc(C(=O)COC(=O)c2nn(C)c(=O)c3ccccc23)c1C` (configuration not stated): over 61.7 µg/mL.
The result for `O=C(COc1cccc(C(F)(F)F)c1)Nc1cccnc1` reads over 44.4 µg/mL.
The same measure for `CN(C)CCOc1cccc(Br)c1.O=C(O)C(=O)O`: 44.6 µg/mL.
The compound `O=C(NCc1ccccn1)Nc1ccc(Br)cc1` yielded a kinetic solubility of 14.9 µg/mL (≈ 48.7 µM).
The same measure for `O=C(CN1c2cccc3cccc(c23)S1(=O)=O)NC1CCCCC1`: 5 µg/mL (≈ 14.5 µM).
The same measure for `O=C(CN1CCN(c2ccccc2F)CC1)c1ccc(O)cc1O`: 10.7 µg/mL (≈ 32.4 µM); for `Cc1sc2nc(-c3cccnc3)[nH]c(=O)c2c1-c1ccccc1`: 2.1 µg/mL (≈ 6.58 µM).
The result for `CCOC(=O)C1CCCN(S(=O)(=O)Cc2ccc(Cl)cc2)C1` (configuration not stated) reads 51 µg/mL (≈ 147 µM); that for `COc1ccc(-n2c(=S)[nH]c3ccccc3c2=S)cc1`, 1.4 µg/mL (≈ 4.66 µM); that for `CC1(N(O)C=C2C=CC(=O)C=C2)CCCCC1=O` (configuration not stated), over 37.1 µg/mL.
In turn, `O=[N+]([O-])c1ccccc1OCCOc1ccccc1[N+](=O)[O-]` gave a solubility (kinetic) of under 0.3 µg/mL.
The same measure for `Fc1ccc(CNC2CCN(Cc3ccccc3)CC2)cc1`: 35.7 µg/mL (≈ 120 µM); for `Cc1ccc(CN2CC(C(=O)Nc3ccc(C)cn3)CC2=O)cc1` (configuration not stated): over 48.5 µg/mL.
The same measure for `CCN(CC)CC(=O)Nn1c(C)nc2c(ncn2-c2ccccc2)c1=O`: over 53.2 µg/mL; for `Cc1ccc(CNc2ncc(-c3ccccc3)n2C)o1.O=C(O)C(=O)O`: over 53.6 µg/mL; for `COC(=O)c1ccc(C2SCC(=O)N2Cc2ccccc2)cc1` (configuration not stated): 37.3 µg/mL (≈ 114 µM).
In the case of `Cc1cc(NC(=O)COC(=O)c2ccccc2[N+](=O)[O-])no1`, the solubility (kinetic) is 21.3 µg/mL (≈ 69.8 µM).
The same measure for `O=C1CCCN1C(=O)CSc1ncnc2sccc12`: over 44 µg/mL; for `CN(CC(=O)NC(=O)NC1CCCCC1)c1ccccc1`: 6.7 µg/mL (≈ 23.2 µM); for `Cc1ccc(OCC(=O)N2c3ccccc3CC2C)c([N+](=O)[O-])n1` (configuration not stated): 21.3 µg/mL (≈ 65.1 µM).
The result for `CN(C(=O)COC(=O)c1ccc[nH]c1=O)C1CCCCC1` reads over 43.9 µg/mL.
The compound `O=C(Cn1c(=O)[nH]c2ccccc2c1=O)Nc1cccnc1` showed a solubility (kinetic) of over 44.4 µg/mL.
`O=C(CC(=O)NCCc1ccccc1)NCCc1ccccc1` had a solubility (kinetic) of over 46.6 µg/mL.
In turn, `O=C(OCc1ccc(Cl)c(Cl)c1)c1ccc[nH]1` yielded a kinetic solubility of 1.9 µg/mL (≈ 7.03 µM).
The same measure for `COc1cc2c(cc1/C=C/[N+](=O)[O-])OCO2`: 6.5 µg/mL (≈ 29.1 µM); for `O=c1cc(C(F)(F)F)[nH]c2c(OC(F)(F)F)cccc12`: over 44.6 µg/mL; for `CCCC1/C(=N/O)CC(c2ccccc2)NC1c1ccccc1` (configuration not stated): under 0.3 µg/mL.
The same measure for `Nc1nc(-c2ccccc2)c(-c2ccccc2)o1`: over 35.4 µg/mL; for `O=C(Nc1ccc2c(c1)C(=O)OC2)c1ccc(F)cc1F`: 2.3 µg/mL (≈ 7.95 µM).
The same measure for `COCc1cccc(C(=O)NC(c2ccccc2)c2ccccc2)c1`: 3.1 µg/mL (≈ 9.35 µM).
`CC(C)[N+](C)(C)CC#CC(O)(c1ccccc1)c1ccccc1.[Br-]` gave a solubility (kinetic) of 51 µg/mL.
`O=C(NCc1ccccc1)c1ccc(F)c(F)c1`: the solubility (kinetic) was 35.5 µg/mL (≈ 144 µM).
The result for `COc1ccc(C(=O)NCC(C)(C)CNC(=O)c2ccc(OC)cc2)cc1` reads 11 µg/mL (≈ 29.7 µM).
In turn, `O=C(c1ccc2ncsc2c1)N1CCCC(C(F)(F)F)C1` (configuration not stated) showed a solubility (kinetic) of over 47.1 µg/mL.
`Cc1ccc(NC(=O)c2ccc(S(=O)(=O)N3CCOCC3)cc2)cc1` returned a solubility (kinetic) of 3.6 µg/mL (≈ 9.99 µM).
Regarding `Cc1cc(C)nc(N/N=C/c2sccc2C)n1`, the solubility (kinetic) is over 36.9 µg/mL.
In turn, `COc1ccc(Cl)cc1C(=O)Nc1nc(C)cc(C)n1` displayed a kinetic solubility of over 43.8 µg/mL.
`O=C(O)c1cccc(NC2=C(N3CCOCC3)C(=O)c3ccccc3C2=O)c1`: the solubility (kinetic) is over 56.8 µg/mL.
The same measure for `O=C1NC(=Nc2cccc(O)c2)S/C1=C\c1cccnc1`: 1.2 µg/mL (≈ 4.04 µM).
